Measurements published in publication PMC7059199, “Identification and structural insight of an effective PPARγ modulator with improved therapeutic index for anti-diabetic drug discovery” (Chemical Science, 2020).

Legend:
[1] = tested on: HFD mice; assay: Anti-diabetic activity and side effects in HFD mice, 7 weeks; conditions: for expression of Glut4 and Adiponectin in adipose tissue (mRNA) / expression of adipogenic genes PPARγ, AP2, CD36, LPL, C/EBPa and Fasn in adipose tissue (mRNA): (S)-VSP-77 5 mg/kg i.p.
Description: HFD mice were injected with (S)- or (R)-VSP-77 for 7 weeks.
Laboratory Animal Co., Shanghai, China) were housed in a temperature-controlled
For chronic treatment, mice were fed high-fat diets (60% calories from fat; Research Diets, New Brunswick, NJ, USA) or standard diets ad libitum. At 14 weeks of age, mice were randomly assigned to
(5 mg/day/kg or 10 mg/kg/day), VSP-77 (5 mg/kg/day) and (S)- or (R)-VSP-77 (5 mg/kg/day) were intraperitoneally injected and INT131 (30 mg/kg/day) was orally treated. The glucose tolerance test (2 g/kg glucose i.p.) and determination of fasting blood glucose and insulin levels were performed after 6 h of starvation. At the end, the animals were anatomized and blood and tissues were collected for further

[2] = target: T1, GST-PPARγ LBD (Homo sapiens, UniProt P37231); assay: LanthaScreen TR-FRET competitive binding assay, PPARγ; conditions: competition of Fluormone (5 nM); 0.5 nM GST-PPARγ LBD
T1 construct: 0.5 nM GST-PPARγ LBD was incubated with 5 nM Fluormone™; purchased Invitrogen
T1 sequence (P37231 238-503 limits assumed): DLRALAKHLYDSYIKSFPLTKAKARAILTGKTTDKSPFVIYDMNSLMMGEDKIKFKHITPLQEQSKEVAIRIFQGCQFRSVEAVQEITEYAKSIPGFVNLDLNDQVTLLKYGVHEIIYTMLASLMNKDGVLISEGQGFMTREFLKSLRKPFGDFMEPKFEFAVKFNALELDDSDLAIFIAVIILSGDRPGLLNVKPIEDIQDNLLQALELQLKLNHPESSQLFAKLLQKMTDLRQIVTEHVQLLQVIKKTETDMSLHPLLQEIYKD
Description: LanthaScreen™ TR-FRET assay (Invitrogen) was used for measuring the binding affinities of the ligands. 0.5 nM GST-PPARγ LBD was incubated with 5 nM Fluormone™ and Terbium-coated GST antibody.
Competitive TR -FRET binding assay
The GST PPARγ -LBD was labeled with a terbium-linked antibody and a fluorescent small molecule pan-PPAR ligand (Fluormone™ Pan-PPAR Green, Invitrogen) was used as a tracer that is displaced from the ligand binding domain upon agonist binding.
Excitation of the terbium at 340 nm results in FRET to the fluorescent tracer, with
Tracer displacment results is a loss of FRET signal between the terbium label and the fluorescent tracer.
The inhibition constant (ki) for a competitor was calculated by applying the
Cheng-Prusoff equation as following:
the tracer, [tracer] is the concentration of Fluormone™ Pan-PPAR Green used in the

[3] = target: T2, PPARα (Homo sapiens, UniProt Q07869); assay: Competitive TR-FRET assay, PPARα; conditions: at 10 μM
T2 sequence (Q07869 1-468): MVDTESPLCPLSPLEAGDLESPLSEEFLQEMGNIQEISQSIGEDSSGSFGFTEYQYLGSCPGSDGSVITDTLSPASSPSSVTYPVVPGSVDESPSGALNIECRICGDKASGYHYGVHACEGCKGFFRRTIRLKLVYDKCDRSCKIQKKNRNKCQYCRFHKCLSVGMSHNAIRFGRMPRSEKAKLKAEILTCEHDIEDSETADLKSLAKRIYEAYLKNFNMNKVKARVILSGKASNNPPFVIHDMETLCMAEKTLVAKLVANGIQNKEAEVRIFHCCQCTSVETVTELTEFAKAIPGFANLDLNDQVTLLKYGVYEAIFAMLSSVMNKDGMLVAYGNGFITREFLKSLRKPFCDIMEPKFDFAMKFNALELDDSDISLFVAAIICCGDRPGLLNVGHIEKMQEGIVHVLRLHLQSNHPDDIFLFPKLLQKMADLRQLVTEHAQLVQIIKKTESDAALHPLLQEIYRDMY

[4] = tested on: 3T3-L1 cells; assay: qPCR of adipogenic genes in 3T3-L1 cells; assay type: cell-based, mouse; conditions: 7 days after treatment
Description: Encouraged by the above results and to further determine whether VSP-77 activates PPARγ in 3T3-L1 cells, we evaluated the ability of VSP-77 to stimulate PPARγ activity by measuring the mRNA levels of endogenous PPARγ-regulated downstream genes linked to adipogenesis (primers are listed in Table S1 ^†).
Fig. 7 Expression of adipogenic genes in 3T3-L1 cells was analyzed by quantitative PCR (qPCR). Relative mRNA levels of the adipocyte differentiation genes PPARγ, aP2, CD36, LPL, C/EBPα and Fasn. mRNA was extracted from differentiating cells 7 days after treatment (n = 3, error bars = SEM). […]
(average±standard deviation calculated from three separate experiments). […]
Cells were stained with Oil Red O to estimate the lipid accumulation. The images were analyzed using ImageJ (National Institutes of Health).
For real-time PCR analysis, 1-2 μg total RNA was reverse-transcribed using the SuperScript cDNA Reverse Transcription Kit (Invitrogen) with SYBR Green PCR Master Mix (Invitrogen) and gene specific primers (Table S1) using a Roche Light Cycler 480 machine. The relative expression of mRNA was determined after normalization to β-actin level using the ΔΔ-Ct method. […]

[5] = tested on: 3T3-L1 cells; assay: 3T3-L1 adipocyte differentiation assay (Oil Red O staining); assay type: cell-based, mouse; conditions: Rosi 10 μM; 2 days
Description: One of the best documented side-effects of the PPARγ agonist drugs is weight gain as PPARγ is the key activator of adipogenesis. To determine whether VSP-77 promotes adipogenesis, we treated mouse fibroblast 3T3-L1 cells with 100 μM of VSP-77. […] Cells were incubated with Oil Red O, which stains adipocytes red.
Fig. 6 3T3-L1 adipocyte differentiation assay. Oil Red O staining of 3T3-L1 fibroblast cells after differentiating with different ligands for 2 days. […]
Adipocyte differentiation assay
The adipocyte differentiation assay was performed with NIH 3T3-L1 preadipocytes obtained from ATCC. The 3T3-L1 preadipocytes were maintained in DMEM containing 10% FBS and antibiotics. For differentiation DMI (Dexamethazone 1 μM, 3-isobutyl-1-methyxanthine (IBMX) 0.5 mM and Insulin167 nM) and 10 μM of rosiglitazone were used as positive controls for the assay. VSP-77 was used at a 100 μM concentration. All the treatments have insulin at 167 nM concentration. Media with DMSO was used as a negative control. Differentiation was induced by treating post-confluent cultures with media containing the respective ligands for two days.
Cells were stained with Oil Red O to estimate the lipid accumulation. The images were analyzed using ImageJ (National Institutes of Health). […]

[6] = target: hERG potassium ion channel (Homo sapiens, UniProt Q12809); design: method as in PMID 23054723; conditions: read-out: hERG inhibition IC50; cited from earlier work
Chain of hERG potassium ion channel (Q12809 whole entry): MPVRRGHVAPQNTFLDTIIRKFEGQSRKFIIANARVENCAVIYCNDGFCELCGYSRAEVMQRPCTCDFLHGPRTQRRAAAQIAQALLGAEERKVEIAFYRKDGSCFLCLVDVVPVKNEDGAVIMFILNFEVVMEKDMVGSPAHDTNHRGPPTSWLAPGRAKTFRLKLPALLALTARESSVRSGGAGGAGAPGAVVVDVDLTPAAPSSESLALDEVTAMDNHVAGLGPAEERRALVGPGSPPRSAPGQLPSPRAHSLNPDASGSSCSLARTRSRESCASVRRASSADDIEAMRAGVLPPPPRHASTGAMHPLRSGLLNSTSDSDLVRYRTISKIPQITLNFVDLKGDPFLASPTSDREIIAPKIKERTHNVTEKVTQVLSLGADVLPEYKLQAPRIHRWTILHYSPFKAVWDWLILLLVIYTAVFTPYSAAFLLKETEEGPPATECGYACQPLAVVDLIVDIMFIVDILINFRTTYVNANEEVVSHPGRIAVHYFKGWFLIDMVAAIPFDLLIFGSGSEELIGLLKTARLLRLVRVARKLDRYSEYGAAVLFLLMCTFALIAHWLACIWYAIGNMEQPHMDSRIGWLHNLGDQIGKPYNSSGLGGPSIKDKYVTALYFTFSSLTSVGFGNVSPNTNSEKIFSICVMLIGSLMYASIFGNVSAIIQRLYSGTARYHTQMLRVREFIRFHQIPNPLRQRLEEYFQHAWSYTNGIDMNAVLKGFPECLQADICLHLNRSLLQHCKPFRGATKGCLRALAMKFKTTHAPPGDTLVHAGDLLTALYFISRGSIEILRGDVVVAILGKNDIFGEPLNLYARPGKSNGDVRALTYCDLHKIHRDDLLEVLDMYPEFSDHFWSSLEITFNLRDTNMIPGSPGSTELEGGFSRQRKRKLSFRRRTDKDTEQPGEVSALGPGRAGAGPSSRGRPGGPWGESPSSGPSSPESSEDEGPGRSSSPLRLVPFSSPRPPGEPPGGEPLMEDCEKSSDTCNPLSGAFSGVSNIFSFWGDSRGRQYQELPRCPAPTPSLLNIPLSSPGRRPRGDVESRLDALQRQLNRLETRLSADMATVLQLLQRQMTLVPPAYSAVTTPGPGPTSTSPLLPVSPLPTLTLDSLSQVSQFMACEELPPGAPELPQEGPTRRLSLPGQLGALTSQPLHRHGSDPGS

CCCCCCC[C@H](OCC(=O)O)c1ccc(Cl)cc1 [(S)-VSP-77]
CDK5-mediated Ser-273 phosphorylation of PPARγ in white adipose tissue ([1]; 5 mg/kg i.p.): effectively blocked
fasting glucose levels ([1]; 5 mg/kg i.p.): significant reduction
fasting insulin levels ([1]; 5 mg/kg i.p.): significant reduction
fluid retention ([1]; 5 mg/kg i.p.): does not promote
expression of Glut4 and Adiponectin in adipose tissue (mRNA) ([1]; Rosi 10 mg/kg i.p.): increased
expression of adipogenic genes PPARγ, AP2, CD36, LPL, C/EBPa and Fasn in adipose tissue (mRNA) ([1]; Rosi 10 mg/kg i.p.): weakly induced

CCCCCCCCCC(=O)O [DA, decanoic acid, reference compound]
Ki [2]: 50.5 µM

CC(C)(Sc1ccc(CCN(CCCCC2CCCCC2)C(=O)NC2CCCCC2)cc1)C(=O)O [GW7647, reference compound]
binding capability for PPARα [3]: ~100%

CN(CCOc1ccc(CC2SC(=O)NC2=O)cc1)c1ccccn1 (centres unmarked) [Rosi, rosiglitazone, reference compound]
expression of adipogenic genes PPARγ, aP2, CD36, LPL, C/EBPα and Fasn (mRNA) [4]: robustly induced
body weight gain ([1]; (S)-/(R)-VSP-77 5 mg/kg i.p., Rosi 10 mg/kg i.p.): observed
expression of Glut4 and Adiponectin in adipose tissue (mRNA) ([1]; Rosi 10 mg/kg i.p.): increased
expression of adipogenic genes PPARγ, AP2, CD36, LPL, C/EBPa and Fasn in adipose tissue (mRNA) ([1]; Rosi 10 mg/kg i.p.): robustly stimulated
% Area stained by Oil Red O [5]: 37%
IC50 [6]: 18.8 µM
